Consider 5 compounds from BindingDB's records for doi:10.1021/jm00089a028 (1992).

The structures appear in SMILES notation. Residues, ends and D or L forms follow the SMILES beside them.

For the assay, the target named is Endothelin receptor type B (Sus scrofa). The experiment in a line: Binding activity against Endothelin B receptor 0f Porcine cerebellum membranes.
Consider `CC(C)C[C@@H]1NC(=O)[C@@H](C(C)C)NC(=O)[C@H](C)N(C)C(=O)[C@@H](CC(=O)O)NC(=O)[C@@H](Cc2c[nH]c3ccccc23)NC1=O` (HELM PEPTIDE1{L.[dW].[dD].[meA].[dV]}$PEPTIDE1,PEPTIDE1,1:R1-5:R2$$$V2.0), for which the IC50 came to 47 µM.

Consider `CC(C)[C@H]1NC(=O)[C@H](C)NC(=O)[C@@H](CC(=O)O)NC(=O)[C@@H](Cc2c[nH]c3ccccc23)NC(=O)[C@@H]2CCCN2C1=O` (HELM PEPTIDE1{A.[dV].P.[dW].[dD]}$PEPTIDE1,PEPTIDE1,1:R1-5:R2$$$V2.0), for which the IC50 was > 100 µM.

As for `CC(C)C[C@@H]1NC(=O)[C@@H](C(C)C)NC(=O)[C@@H]2CCCN2C(=O)[C@@H](CCC(=O)O)NC(=O)[C@@H](Cc2c[nH]c3ccccc23)NC1=O` (HELM PEPTIDE1{L.[dW].[dE].P.[dV]}$PEPTIDE1,PEPTIDE1,1:R1-5:R2$$$V2.0), the IC50 is > 100 µM.

`CC(C)C[C@@H]1NC(=O)[C@@H](C(C)C)NC(=O)CN(C)C(=O)[C@@H](CC(=O)O)NC(=O)[C@@H](Cc2c[nH]c3ccccc23)NC1=O` (HELM PEPTIDE1{L.[dW].[dD].[Sar].[dV]}$PEPTIDE1,PEPTIDE1,1:R1-5:R2$$$V2.0) yielded an IC50 of 30 µM.

On to `CC[C@H](C)[C@H]1NC(=O)[C@H](C)NC(=O)[C@@H](CCC(=O)O)NC(=O)[C@@H](Cc2c[nH]c3ccccc23)NC(=O)[C@H](CC(C)C)NC1=O` (HELM PEPTIDE1{A.[CC[C@H](C)[C@@H](N[*:1])C(=O)[*:2]].L.[dW].[dE]}$PEPTIDE1,PEPTIDE1,1:R1-5:R2$$$V2.0), for which the IC50 is > 100 µM.

By IC50 is commonly meant the concentration at which inhibition is half-maximal.
